Patent publication US20230338349A1, “LOW DOSE REGIMEN AND FORMULATION OF A 5-METHYL-1,2,4-OXADIAZOL-3-YL COMPOUND” (Eli Lilly and Company, priority 2020, published 2023)

Test: Plasma concentration of compound of Formula I in the PET occupancy study
Type: in vivo
Conditions: human, healthy subjects; for concentration at 0.5 h: approx. 0.5 h; for concentration at 1 h: approx. 1 h; for concentration at 2 h: approx. 2 h; for concentration at 3 h: approx. 3 h; for concentration at 4 h: approx. 4 h; for concentration at 5 h: approx. 5 h; for concentration at 6 h: approx. 6 h; for concentration at 8 h: approx. 8 h; for concentration at 12 h: approx. 12 h; for concentration at 24 h: approx. 24 h
Method: Healthy subjects are assigned to 1 of 4 cohorts with 4 subjects in each cohort completing the study. All subjects undergo one baseline PET scan and two post-dose PET scans. A baseline PET scan is performed from up to approximately 14 days before dosing of the compound of Formula I. Overall, each subject receives a single dose of the compound of Formula I and 3 administrations of the [^18F]LSN3316612 PET tracer. Dosing of the compound of Formula I occurs after completion of the baseline PET scan. Scans are conducted at approximately 2 and 24 hours post-dose for the 0.25 mg and 5 mg doses of the compound of Formula I, and at approximately 2 and 24 hours or 30 and 54 hours post-dose for the 1 mg dose of the compound of Formula I. Dynamic PET data of the brain are acquired over 120 min immediately following tracer injection. EO is summarized by the compound of Formula I dose and approximate scanning time.
The compound of Formula I is administered orally in capsule formulation for doses≥3 mg. For doses lower than 3 mg, the compound of Formula I is weighed into a suitable container and dissolved in an appropriate volume of degassed Sprite® or diluent.
Arterial blood samples are collected from all subjects during each PET scan to measure radioactivity to provide input for the PET tracer kinetic analysis. Venous blood samples are collected following dosing of compound of Formula I to measure plasma concentrations of compound of Formula I using a validated liquid chromatography with tandem mass spectrometry assay.

With `CC(=O)Nc1nc(F)c(CN2CC[C@H](OCc3noc(C)n3)C[C@@H]2C)s1` [compound of Formula I, N-[4-fluoro-5-[[(2S,4S)-2-methyl-4-[(5-methyl-1,2,4-oxadiazol-3-yl)methoxy]-1-piperidyl]methyl]thiazol-2-yl]acetamide] the concentration at 0.5 h (single oral dose 0.25 mg) was 0.934 ng/mL, the concentration at 1 h (single oral dose 0.25 mg) was 0.595 ng/mL and the concentration at 2 h (single oral dose 0.25 mg) was 0.373 ng/mL. The concentration at 3 h (single oral dose 0.25 mg) was 0.391 ng/mL, the concentration at 4 h (single oral dose 0.25 mg) was 0.367 ng/mL and the concentration at 5 h (single oral dose 0.25 mg) was 0.39 ng/mL. The concentration at 6 h (single oral dose 0.25 mg) was 0.357 ng/mL, the concentration at 8 h (single oral dose 0.25 mg) was 0.294 ng/mL and the concentration at 12 h (single oral dose 0.25 mg) was 0.213 ng/mL. It also gave a concentration at 24 h (single oral dose 0.25 mg) of 0.107 ng/mL, a concentration at 0.5 h (single oral dose 1 mg) of 6.29 ng/mL and a concentration at 1 h (single oral dose 1 mg) of 6.24 ng/mL. The concentration at 2 h (single oral dose 1 mg) was 5.75 ng/mL, the concentration at 3 h (single oral dose 1 mg) was 4.97 ng/mL and the concentration at 4 h (single oral dose 1 mg) was 4.28 ng/mL. For the same compound, the concentration at 5 h (single oral dose 1 mg) was 3.87 ng/mL, the concentration at 6 h (single oral dose 1 mg) was 3.08 ng/mL and the concentration at 8 h (single oral dose 1 mg) was 2.45 ng/mL. For the same compound, the concentration at 12 h (single oral dose 1 mg) was 1.42 ng/mL, the concentration at 24 h (single oral dose 1 mg) was 0.412 ng/mL and the concentration at 30 h (single oral dose 1 mg, approx. 30 h) was 0.222 ng/mL. The concentration at 54 h (single oral dose 1 mg, approx. 54 h) was 0.0735 ng/mL, the concentration at 0.5 h (single oral dose 5 mg) was 32.4 ng/mL and the concentration at 1 h (single oral dose 5 mg) was 30.7 ng/mL. For the same compound, the concentration at 2 h (single oral dose 5 mg) was 36 ng/mL, the concentration at 3 h (single oral dose 5 mg) was 31.9 ng/mL and the concentration at 4 h (single oral dose 5 mg) was 31.5 ng/mL. The concentration at 5 h (single oral dose 5 mg) was 30.6 ng/mL, the concentration at 6 h (single oral dose 5 mg) was 25.3 ng/mL and the concentration at 8 h (single oral dose 5 mg) was 17.8 ng/mL. The concentration at 12 h (single oral dose 5 mg) was 12.5 ng/mL and the concentration at 24 h (single oral dose 5 mg) was 3.07 ng/mL.
